Test results as given in article PMC5829251, “NAD^+ analog reveals PARP-1 substrate-blocking mechanism and allosteric communication from catalytic center to DNA-binding domains” (Nature Communications, 2018).

How the values were obtained:
[1] = biological target: T1, PARP-1 triple mutant E763/D766/D770A (Homo sapiens, UniProt P09874, D766A/D770A/E763A); test: DSF, full-length PARP-1 E763/D766/D770A; format: binding; settings: BAD 1250 μM
T1 construct: Full-length PARP-1 WT (residues 1–1014) was cloned in pET28 vector and site-directed mutagenesis was performed; made in house; host or cells: E. coli
T1 sequence (P09874 whole entry E763A/D766A/D770A, the tested form may be a part): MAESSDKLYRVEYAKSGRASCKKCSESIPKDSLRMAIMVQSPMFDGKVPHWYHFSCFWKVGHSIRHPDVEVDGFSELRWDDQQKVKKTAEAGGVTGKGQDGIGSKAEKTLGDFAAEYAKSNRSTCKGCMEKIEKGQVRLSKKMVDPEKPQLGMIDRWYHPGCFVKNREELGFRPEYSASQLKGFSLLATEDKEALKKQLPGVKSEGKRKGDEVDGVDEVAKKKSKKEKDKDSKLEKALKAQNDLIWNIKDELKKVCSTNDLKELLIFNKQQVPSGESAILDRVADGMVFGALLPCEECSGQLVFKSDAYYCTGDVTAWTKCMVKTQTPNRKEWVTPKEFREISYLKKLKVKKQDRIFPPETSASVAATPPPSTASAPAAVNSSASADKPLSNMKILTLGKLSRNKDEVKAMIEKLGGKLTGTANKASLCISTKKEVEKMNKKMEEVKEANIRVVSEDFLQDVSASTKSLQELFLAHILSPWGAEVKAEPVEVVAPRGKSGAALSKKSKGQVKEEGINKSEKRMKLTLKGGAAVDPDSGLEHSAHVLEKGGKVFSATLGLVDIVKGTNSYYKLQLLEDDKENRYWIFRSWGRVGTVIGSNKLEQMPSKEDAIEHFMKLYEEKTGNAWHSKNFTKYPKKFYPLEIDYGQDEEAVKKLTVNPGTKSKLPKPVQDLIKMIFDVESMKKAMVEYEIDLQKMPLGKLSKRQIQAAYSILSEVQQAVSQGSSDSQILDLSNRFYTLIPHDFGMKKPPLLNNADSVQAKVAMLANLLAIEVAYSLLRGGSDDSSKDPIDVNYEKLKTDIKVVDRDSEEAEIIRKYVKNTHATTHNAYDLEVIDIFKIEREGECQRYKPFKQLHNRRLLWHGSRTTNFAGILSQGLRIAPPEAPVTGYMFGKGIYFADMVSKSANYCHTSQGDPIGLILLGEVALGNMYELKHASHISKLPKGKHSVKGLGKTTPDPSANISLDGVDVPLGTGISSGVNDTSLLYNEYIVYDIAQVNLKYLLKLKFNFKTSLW
Method: DSF experiments were performed as described, [13] using 5 µM protein, 2.5 µM DNA when indicated and various concentrations of compound (BAD, carba-NAD^+, benzamide, and ADP-ribose) as indicated in Fig. 1 and Fig. 3. Experiments were performed on a Roche LightCycler 480 RT-PCR. Reactions including DNA were performed with a 26- or 28-base pair (bp) unphosphorylated oligonucleotide for PARP-1, a 28-bp 5´-phosphorylated (5´P) oligonucleotide for PARP-2, and a 47-bp oligonucleotide including a central 5´P nick for PARP-3^13 in the following buffer: 25 mM Hepes pH 8.0, 150 mM NaCl, 1 mM EDTA, and 0.1 mM TCEP. Reactions with PARP-3 were conducted at lower ionic strength to allow binding to DNA as described (25 mM Hepes pH 8.0, 50 mM NaCl, 1 mM EDTA and 0.1 mM TCEP)[13]. ΔTM values were calculated by subtracting the TM determined for the protein in the absence of compound from the TM determined in the presence of compound. Experiments were performed in triplicate and a Boltzmann sigmoid was fit to the data to determine the TM values (KaleidaGraph).

PARP-1 ΔHD = test: Fluorescence polarization DNA competition assay, PARP-1 ΔHD; format: binding, human; settings: 40 nM PARP-1 ΔHD, 20 nM labeled DNA, BAD 500 μM
Method: For the DNA competition assay, 40 nM PARP-1 WT, or PARP-1 ΔHD, was incubated with 20 nM of dumbbell DNA with a central nick carrying an internal fluorescent FAM group (5′-GCT GAG C/FAMT/T CTGGTGAAGCTCAGCTCGCGGCAGCTGGTGCTGCCGCGA-3′) for 30 min at RT in 12 mM Hepes pH 8.0, 60 mM KCl, 8 mM MgCl2, 4% glycerol, 5.7 mM beta-mercaptoethanol, 0.05 mg per ml bovine serm albumin with or without BAD or benzamide (500 μM). A competitor unlabeled DNA of the same sequence was added at 100 nM and FP was measured over time on a VictorV plate reader (Perkin Elmer). For the DNA affinity measurement assay, increasing concentrations of PARP-1 WT were incubated for 30 min at RT with 5 nM of dumbbell DNA probe carrying a nick (described above) in the absence or presence of BAD or benzamide (100 μM) in the following buffer: 12 mM Hepes pH 8.0, 250 mM NaCl, 4% glycerol, 5.7 mM beta-mercaptoethanol, 0.05 mg per ml bovine serum albumin.

With `NC(=O)c1cccc(C2OC(COP(=O)(O)OP(=O)(O)OCC3OC(n4cnc5c(N)ncnc54)C(O)C3O)C(O)C2O)c1` (stereo not drawn) [BAD, benzamide adenine dinucleotide] the TM ([1]; Figure 3a, no DNA, TM without BAD 45.74, in °C (unit assumed)) was 50.13, the “TM change in the presence of BAD” value ([1]; did not require the presence of DNA) was “increase in TM” and the “release of full-length PARP-1 ΔHD from the labeled DNA” value (PARP-1 ΔHD) was “did not prevent the rapid release”.
